Results on one compound are retold here after patent US11866692B2, “Fermentation fungal substance of astragalus membranaceus paecilomyces cicadae and its use” (BinZhou Medical University, priority 2019, dated 2024).

The test system of this assay is rats with hyperuricemia. Briefly: Efficacy test in potassium oxonate-induced hyperuricemia rats (serum UA, BUN, CRE, TG). Type of assay: in vivo, Sprague Dawley (SD) rats. As to conditions: gavage twice each day for 14 days, 300 mg·kg−1 (benzbromarone 20 mg·kg−1), serum 4 h after last administration. The protocol: SD rats were randomly divided into normal group, hyperuricemia (HUA) model group, positive medicine control group, Astragalus membranaceus group and fungal substance A group based on body mass, with 8 rats in each group. They were used in experiments after one week of adaptive feeding in an animal room. All groups were fed with normal feed. In addition, the normal group was treated with distilled water by gavage. Other groups were treated with 300 mg·kg^−1 of potassium oxonate by gavage each day for modeling. After 1 hour, the positive medicine control group was treated with 20 mg·kg^−1 of benzbromarone by gavage, the Astragalus membranaceus group was treated with 300 mg·kg^−1 of an Astragalus membranaceus powder solution by gavage, and the fungal substance A group was treated with 300 mg·kg^−1 of a fungal substance A solution by gavage. The treatment was performed twice each day for 14 consecutive days, and the dosage was 10 mL·kg^−1. Four hours after administration on the last day, blood samples were taken from the orbital venous plexus of the rats. The blood samples were stored at 4° C. overnight, and then centrifuged to obtain serum, which was for determination of biochemical indexes. After routine calibration and quality control, the contents of uric acid (UA), urea nitrogen (BUN), creatinine (CRE) and triglyceride (TG) in serum were determined by an automatic biochemical analyzer. All test results are expressed in the form of “mean±standard deviation”. Excel and software SPSS17.0 were utilized for calculation and statistics. After all data were tested for normal distribution and homogeneity of variance, single factor analysis of variance was performed. The difference between the two groups was tested by t-test. When P<0.05, the difference was considered to be statistically significant.

Molecules are shown by their SMILES.

Turning to `CCc1oc2ccccc2c1C(=O)c1cc(Br)c(O)c(Br)c1` [benzbromarone], the “Serum UA level compared with the model group” value (FIG. 1) was “significantly reduced”. In addition, the “Serum CRE level compared with the model group” value (FIG. 3) was “very significantly reduced”. Besides, the “Serum TG level compared with the model group” value (FIG. 4) is given as “significantly reduced”.
